Assay results: ChEMBL document CHEMBL3108715, “Pan-histone demethylase inhibitors simultaneously targeting Jumonji C and lysine-specific demethylases display high anticancer activities” (J Med Chem, 2014)
Active and inactive are the calls of the source.

Experiments:
Type in all cases: functional, cell-based
HCT-116 [1] = assay: Antimigratory activity against human HCT116 cells at 50 uM after 72 hrs
HCT-116 [2] = assay: Cytotoxicity against human HCT116 cells at 50 uM after 72 hrs
LNCaP [3] = assay: Antimigratory activity against human LNCAP cells at 50 uM after 72 hrs
LNCaP [4] = assay: Cytotoxicity against human LNCAP cells at 50 uM after 72 hrs

Measured: Activity

O=C(CCCCCCC(=O)Nc1ccccc1)NO
active: all assays above
